Results on one compound are retold here after patent US9980976B2, “Use of REDD1 inhibitors to dissociate therapeutic and adverse atrophogenic effects of glucocorticoid receptor agonists” (Northwestern University, priority 2015, dated 2018).

The subject of data set [1] is glucocorticoid-responsive genes in murine epidermis. Briefly: Genome-wide expression profiling of murine epidermis (microarray, Q-PCR validation). The data set is classed as in vivo, mouse. The note with it: FA. As for the experimental part: To investigate the global role of REDD1 in GR signaling, we performed genome-wide expression profiling of the epidermis of REDD1 and wild-type mice treated with vehicle (control) or FA using Illumina mouse whole-genome gene array (GEO Submission GSE59151). Gene expression was measured 24 h post-FA application, when both TA and TR are usually fully developed (Wu et al, 2004). Differential expression was identified based on the adjusted P-value threshold of 0.05.
RNA samples were checked for quality and integrity with the Agilent 2100 bioanalyzer and used for microarray analysis. RNA amplification, labeling, and hybridization with the Mouse Whole-Genome Gene Expression BeadChips MouseRef-8 v2.0 (Illumina) were performed at the Genomics Core Facility at the Center for Genetic Medicine at Northwestern University according to Illumina protocols.
Microarray processing was performed using the Limma package (Smyth, 2005), using the neqc function to perform background subtraction using the negative control probes, and quantile normalization using both positive and negative control probes. Differentially expressed probes were identified using the linear model implemented in Limma, applying an adjusted P-value threshold of 0.05. Q-PCR and microarray based gene expression values were compared using linear Pearson correlation.
Gene ontology analysis was performed using the DAVID Bioinformatics resource tool (Huang et al, 2009a,b), submitting differentially expressed probes from each experiment, against the probe background of MouseRef 8. DAVID performs a hypergeometric test to identify overrepresented GO terms in a list of differentially expressed probes. Results are presented for categories with greater than or equal to threefold enrichment and P=0.01.

In data set [2] the test system is croton oil-induced ear edema. Briefly: Croton oil-induced ear edema test. The data set is classed as in vivo, mouse.
Another data set has as its system mouse skin. Briefly: Glucocorticoid-induced skin atrophy in mice (morphometric analysis of dorsal skin). The data set is classed as in vivo. As for the experimental part:
Seven-week-old females in the telogen stage of the hair cycle were shaved and treated 3 days later. Glucocorticoid FA was applied topically (2 μg/animal) in 200 μl acetone to the back skin once or up to four times every third day as described (Chebotaev et al, 2007c). Control animals were treated with acetone only. Animals were injected i.p. with bromodeoxyuridine (BrdU, Sigma-Aldrich, 50 μg/g of animal weight) 1 h before skin was harvested. Epidermis and s.c. fat were isolated from the murine dorsal skin mechanically by scraping (Chebotaev et al, 2007c). […] Quantification of the epidermal width and number of basal keratinocytes (as the readouts for skin atrophy and hypoplasia of raft epidermis) was performed in dorsal skin and ORC sections stained with H&E. The number of dermal cells was determined on sections stained with Masson's trichrome in the upper (papillary) dermis that is distinguishable from the lower (reticular) dermis ([…] et al, 2013). At least 10 individual fields per slide with at least three samples in each experimental group were counted using Axioplan2 microscope software (Carl Zeiss). All measurements are presented as % to corresponding control.

The subject of the next data set is mTOR. Briefly: mTOR activity in mouse skin (phosphorylation of 4E-BP1 and rpS6, phospho-mTOR Ser2448). The class given is in vivo. The note with it: B6D2 mice, topical FA. The source says: Because REDD1 is a known inhibitor of mTOR signaling (Sofer et al, 2005; Wang et al, 2006; DeYoung et al, 2008; Shimizu et al, 2011), we tested whether FA inhibits mTOR activity in the skin. In previous studies, mTOR activity has been monitored by phosphorylation of its major substrates, 4E-BP1 (eukaryotic initiation factor 4E binding protein 1) and S6K1 (ribosomal p70/S6 kinase 1) as well as ribosomal protein S6 (rpS6), a substrate of S6K1 (Checkley et al, 2011). As basal level of S6K1 phosphorylation was low in skin of B6D2 mice, we used 4E-BP1 and rpS6 as preferred markers. […] Moreover, there was an inverse correlation between phosphorylation of mTOR targets and REDD1 expression in the epidermis. By the time when REDD1 expression reached its peak (8 h after 1st and 2nd FA applications), the repression of mTOR activity by FA was most pronounced (FIGS. 2A, B). We further confirmed this inverse correlation using immunostaining for REDD1 and active, phosphorylated at Ser2448 mTOR (FIG. 2A). […]

The subject of another data set is GR. Briefly: GR phosphorylation at Ser211 (Western blot) in HaCaT and CEM cells. The data set is classed as cell-based, human. The note with it: 1 uM FA. As for the experimental part:
FIG. 15. Rapamycin inhibits GR nuclear translocation and phosphorylation. A. GR nuclear translocation in HaCaT cells was determined by immunofluorescence as described in Materials and Methods. Cells on coverslips were pretreated with solvent (Control) or Rapamycin (1 uM×6 h) and treated with 1 uM FA for indicated time. B. GR nuclear translocation in CEM cells was determined by Western blot analysis of nuclear protein extracts. Membranes were probed with anti-HDAC-1 antibodies to verify equal protein loading and transfer. C, D. GR phosphorylation in HaCaT (C) and CEM (D) cells was determined by Western blot analysis of whole cell lysates. Membranes were probed with anti-GAPDH antibodies to verify equal protein loading and transfer.
The whole-cell protein extracts were prepared using RIPA buffer with protease and phosphatase inhibitor cocktails (Thermo Scientific, Thermo Fisher Scientific Inc., Waltham, Mass., USA), resolved by SDS-PAGE on 4-20% gels and transferred to Odyssey nitrocellulose membranes (LI-COR Biosciences, Lincoln, Neb., USA). Membranes were blocked with Odyssey Blocking Buffer and incubated with primary antibodies overnight at 4° C., followed by IRDye® secondary antibodies (LI-COR Biosciences). LI-COR Odyssey Imager was used for the band visualization. […]

The mark [3] stands for this setting: B6D2 mice, FA 2 μg/animal topically every 72 h, 2-week treatment.

With `CC1(C)O[C@@H]2C[C@H]3[C@@H]4C[C@H](F)C5=CC(=O)C=C[C@]5(C)[C@@]4(F)[C@@H](O)C[C@]3(C)[C@]2(C(=O)CO)O1` [FA, fluocinolone acetonide], in data set [1] (REDD1 KO keratinocytes), the “gene categories up-regulated (GO analysis)” value is “up-regulated genes related to autophagy, endosomes, and PI3K signaling”. In data set [1] (wild-type and REDD1 KO epidermis), the “Cd74 and H2-Ab1 expression (Q-PCR array validation)” value is listed as “similarly down-regulated”. Moreover, the “gene categories inhibited (GO analysis)” value in data set [1] (wild-type but not REDD1 KO skin) was “inhibited genes related to DNA replication”. For the same compound, the “ear edema / ear weight” value in data set [2] (croton oil 20 ul/ear, FA 1 ug/ear 1 h before CO, weighed 9 h after CO) is “reduced edema decreasing the ear weight to control level”. Further, the “anti-inflammatory effect (ear morphology and ear punch weight)” value in data set [2] (wild-type and REDD1 KO mice, FA 2 μg 1 h before croton oil, 9 h after CO) is recorded as “relieved this inflammatory response with equal potency”. The “depletion of the interfollicular basal keratinocytes” value in the data set on mouse skin (setting [3]) is recorded as 50%. The epidermal thinning in the data set with mouse skin (setting [3]) turned out to be 50%. In addition, the “depletion of s.c. adipose tissue” value in the data set with mouse skin (B6D2 mice, chronic FA treatment) is “complete depletion”. Also, the “reduction of epidermal thickness” value is on record as 50% with mouse skin (B6×129 mice, FA 2 ug/animal every 72 h for 2 weeks, with or without rapamycin 500 ug/animal×5 hrs pretreatment); less than 20% in the data set with mouse skin (REDD1 KO mice, chronic FA 2 μg/animal every 72 h for 2 weeks); 50% with mouse skin (wild-type B6×129 mice, chronic FA 2 μg/animal every 72 h for 2 weeks). Moreover, the skin atrophy result with mouse skin (F1 C57B1×129 mice, topical FA, 2 wk treatment) is on record as “severe skin atrophy”. For the same compound, the “number of dermal fibroblasts” value in the data set with mouse skin (w.t. B6×129 mice treated with FA×2 wk, Masson's trichrome) was “strongly decreased”. The “mTOR activity in the skin” value in the data set with mTOR is “blocked mTOR activity”. Further, the “GR phosphorylation at Ser211” value in the data set on GR is recorded as “induced quick GR phosphorylation”.
